The numbers were not newly measured in patent US10035799B2, “COMT inhibiting methods and compositions” (Lieber Institute for Brain Development, priority 2015, dated 2018), which cites them from elsewhere.

In data set [1] the target is T1, aromatic amino acid decarboxylase (AAAD) (Homo sapiens, UniProt P20711).
T1 sequence (P20711 1-480): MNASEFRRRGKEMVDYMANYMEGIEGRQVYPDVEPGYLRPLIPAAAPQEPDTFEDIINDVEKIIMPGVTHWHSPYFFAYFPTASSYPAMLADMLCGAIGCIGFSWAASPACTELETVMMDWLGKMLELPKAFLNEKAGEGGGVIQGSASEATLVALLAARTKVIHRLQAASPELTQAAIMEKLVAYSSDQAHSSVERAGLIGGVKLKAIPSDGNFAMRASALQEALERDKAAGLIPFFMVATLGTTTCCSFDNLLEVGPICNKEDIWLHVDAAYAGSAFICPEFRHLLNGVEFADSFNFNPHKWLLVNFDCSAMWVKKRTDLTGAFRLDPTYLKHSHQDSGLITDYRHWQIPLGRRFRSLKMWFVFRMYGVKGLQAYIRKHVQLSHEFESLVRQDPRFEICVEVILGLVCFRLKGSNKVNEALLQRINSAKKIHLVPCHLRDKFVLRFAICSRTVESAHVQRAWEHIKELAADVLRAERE
The conditions noted are these: given with L-DOPA; Nutt, Woodward et al. 1985; cited from earlier work.

For data set [2] the following is noted: Nutt and Fellman 1984; cited from earlier work.
The conditions of data set [3]: Russ, et al. 1999; cited from earlier work.
For data set [4] the following is noted: clinical use; Olanow and Watkins 2007; cited from earlier work.

Structures are written as SMILES.

Turning to `C[C@@](Cc1ccc(O)c(O)c1)(NN)C(=O)O` [Carbidopa], the “reduction of the efficacious L-DOPA dose” value in data set [1] is 60-80%.

Turning to `N[C@@H](Cc1ccc(O)c(O)c1)C(=O)O` [L-DOPA], in data set [2], the “percentage of exogenously administered L-DOPA that reaches the brain” value is listed as about 1%.

`CCN(CC)C(=O)/C(C#N)=C/c1cc(O)c(O)c([N+](=O)[O-])c1` [entacapone]: the brain penetration result in data set [3] is given as “negligible”.

Take `Cc1ccc(C(=O)c2cc(O)c(O)c([N+](=O)[O-])c2)cc1` [tolcapone]: the liver injury result in data set [4] is “serious liver injury, including three deaths”. In data set [3], the brain penetration entry was “low but measurable”.
